One experiment relates to AECO001 (ATCC25922). Kind of experiment: MIC broth microdilution, AECO001. Type of experiment: cell-based, E. coli. The settings on record: Escherichia coli. The method, boiled down: (§1)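 Inocula prepared from 0.5 McFarland suspensions (final 3×10^5–7×10^5 CFU/mL) were added to 2-fold drug dilution series in cation-adjusted Mueller-Hinton broth. Plates stood 18-24 hours at 35° C. under ambient air.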
A general note: Dilution methods test growth across graded concentrations, often in twofold steps.

Experiment [1] concerns AECO063 (ATCC25922 bearing an acrAB mutation). In words: microbe, parasite or virus in culture. The experiment is classed as cell-based, E. coli. The settings on record: Escherichia coli, ATCC25922, read-out: MIC AECO063. The method, boiled down:
as §1

For the next experiment, the system named is APAE001 (ATCC27853). Kind of experiment: MIC broth microdilution, APAE001. The experiment is classed as cell-based, P. aeruginosa. Conditions: Pseudomonas aeruginosa, ATCC27853, read-out: MIC APAE001, APAE001 (ATCC27853). A digest of the protocol:
as §1

The subject of experiment [2] is APAE006 (strain of P. aeruginosa in which all efflux pumps are inactivated). Kind of experiment: microbe, parasite or virus in culture. Type of experiment: cell-based. The settings on record: Pseudomonas aeruginosa, read-out: MIC APAE006, APAE006, all efflux pumps inactivated. The method, boiled down: (§2)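 For the efflux-deficient P. aeruginosa APAE006, one set of MICs includes polymyxin B nonapeptide at 8 micrograms per milliliter.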

Experiment [3] has as its system APAE006 in the presence of 8 micrograms per milliliter of polymyxin B nonapeptide. The experiment is classed as cell-based, P. aeruginosa. The settings on record: APAE006 with 8 micrograms per milliliter polymyxin B nonapeptide. The method, boiled down:
as §2

Experiment [4] has as its system AABA1060 (clinical isolate of Acinetobacter baumannii). Kind of experiment: MIC broth microdilution, AABA1060. The experiment is classed as cell-based. The settings on record: Acinetobacter baumannii, read-out: MIC AABA1060. A digest of the protocol: as §1
The subject of experiment [5] is ASAU001 (laboratory strain of S. aureus, ATCC29213). Kind of experiment: MIC broth microdilution, ASAU001. The experiment is classed as cell-based. The settings on record: Staphylococcus aureus, ATCC29213, read-out: MIC ASAU001. The method, boiled down:
as §1

The mark [6] stands for this setting: ATCC25922, read-out: MIC AECO001.
Where [7] appears, read: ATCC25922, read-out: MIC AECO001 HSA AGP.

Values after ≈ are worked out from the molar mass of the structure shown. Where two headings read alike, the source gives them in different places. Where only a bound is given, the exact number is not on record here.

For the compound `CC(C)(N)[C@H](NC(=O)c1ccc(C#CC#CC2CCNCC2)cc1)C(=O)NO` [Example 137-23], the MIC is 16 to 64 µg/mL (≈ 41.8 to 167 µM) in the experiment with AECO001 (ATCC25922) (setting [6]); 16 to 64 µg/mL (≈ 41.8 to 167 µM) with AECO001 (ATCC25922) (setting [7]); 16 to 64 µg/mL (≈ 41.8 to 167 µM) in experiment [1]; 2 to 16 µg/mL (≈ 5.23 to 41.8 µM) in the experiment with APAE001 (ATCC27853); less than 2 µg/mL in experiment [2]; 16 to 64 µg/mL (≈ 41.8 to 167 µM) in experiment [4]. In experiment [5], the MIC is 16 to 64 µg/mL (≈ 41.8 to 167 µM). In experiment [3], the “MIC APAE006 + PMBN” value is reported as “B (MIC's of greater than 2.0 μg/mL to 16.0 μg/mL = B)”.

Turning to `CC(C)CCC#CC#Cc1ccc(C(=O)N[C@H](C(=O)NO)[C@@H](C)N)cc1` [Example 91-28], the MIC was less than 2 µg/mL in the experiment on AECO001 (ATCC25922) (setting [6]); 2 to 16 µg/mL (≈ 5.63 to 45 µM) in the experiment on AECO001 (ATCC25922) (setting [7]); less than 2 µg/mL in experiment [1]; 2 to 16 µg/mL (≈ 5.63 to 45 µM) in the experiment with APAE001 (ATCC27853); less than 2 µg/mL in experiment [2]; 2 to 16 µg/mL (≈ 5.63 to 45 µM) in experiment [4]. In addition, the MIC in experiment [5] lay in the range of 2 to 16 µg/mL (≈ 5.63 to 45 µM). In addition, in experiment [3], the “MIC APAE006 + PMBN” value is “A (MIC's of 2.0 μg/mL or less = A)”.

`C[C@@H](O)[C@H](NC(=O)c1ccc(/C=C/C#Cc2cccc(F)c2)cc1)C(=O)NO` [Example 137-14]: the MIC is less than 2 µg/mL in the experiment with AECO001 (ATCC25922) (setting [6]); 16 to 64 µg/mL (≈ 41.8 to 167 µM) with AECO001 (ATCC25922) (setting [7]); less than 2 µg/mL in experiment [1]; 2 to 16 µg/mL (≈ 5.23 to 41.8 µM) with APAE001 (ATCC27853); less than 2 µg/mL in experiment [2]; 2 to 16 µg/mL (≈ 5.23 to 41.8 µM) in experiment [4]. Also, the MIC in experiment [5] was in the range of 16 to 64 µg/mL (≈ 41.8 to 167 µM). The “MIC APAE006 + PMBN” value in experiment [3] is reported as “A (MIC's of 2.0 μg/mL or less = A)”.

Regarding `CC(C)(N)[C@H](NC(=O)c1ccc(C#CC#Cc2cccc(F)c2)cc1)C(=O)NO` [Example 82-27], the MIC in the experiment with AECO001 (ATCC25922) (setting [6]) was less than 2 µg/mL; in the experiment on AECO001 (ATCC25922) (setting [7]), 2 to 16 µg/mL (≈ 5.08 to 40.7 µM); in experiment [1], less than 2 µg/mL; with APAE001 (ATCC27853) it was 2 to 16 µg/mL (≈ 5.08 to 40.7 µM); in experiment [2] it was less than 2 µg/mL; in experiment [4], 2 to 16 µg/mL (≈ 5.08 to 40.7 µM). The MIC in experiment [5] lay in the range of 16 to 64 µg/mL (≈ 40.7 to 163 µM). Further, the “MIC APAE006 + PMBN” value in experiment [3] was “A (MIC's of 2.0 μg/mL or less = A)”.

Take `CC(C)(N)[C@H](NC(=O)c1ccc(C#CC#Cc2ccc(F)cc2)cc1)C(=O)NO` [Example 82-28]: the MIC in the experiment with AECO001 (ATCC25922) (setting [6]) is less than 2 µg/mL; with AECO001 (ATCC25922) (setting [7]) it was 2 to 16 µg/mL (≈ 5.08 to 40.7 µM); in experiment [1] it was less than 2 µg/mL; with APAE001 (ATCC27853), 2 to 16 µg/mL (≈ 5.08 to 40.7 µM); in experiment [2] it was less than 2 µg/mL; in experiment [4], less than 2 µg/mL. Besides, the MIC in experiment [5] was 2 to 16 µg/mL (≈ 5.08 to 40.7 µM). In addition, in experiment [3], the “MIC APAE006 + PMBN” value was “A (MIC's of 2.0 μg/mL or less = A)”.

Take `CCOCc1ccc(C#CC#Cc2ccc(C(=O)N[C@H](C(=O)NO)C(C)(C)O)cc2)cc1` [Example 82-21]: the MIC is less than 2 µg/mL with AECO001 (ATCC25922) (setting [6]); 2 to 16 µg/mL (≈ 4.6 to 36.8 µM) in the experiment on AECO001 (ATCC25922) (setting [7]); less than 2 µg/mL in experiment [1]; 2 to 16 µg/mL (≈ 4.6 to 36.8 µM) with APAE001 (ATCC27853); less than 2 µg/mL in experiment [2]; less than 2 µg/mL in experiment [4]. Further, in experiment [5], the MIC was 16 to 64 µg/mL (≈ 36.8 to 147 µM). Moreover, the “MIC APAE006 + PMBN” value in experiment [3] was “A (MIC's of 2.0 μg/mL or less = A)”.

Consider `C[C@@H](O)[C@H](NC(=O)c1ccc(/C=C/C#Cc2ccccc2)cc1)C(=O)NO` [Example 114-14], for which the MIC with AECO001 (ATCC25922) (setting [6]) is less than 2 µg/mL; in the experiment with AECO001 (ATCC25922) (setting [7]) it was 2 to 16 µg/mL (≈ 5.49 to 43.9 µM); in experiment [1], less than 2 µg/mL; with APAE001 (ATCC27853), 2 to 16 µg/mL (≈ 5.49 to 43.9 µM); in experiment [2], less than 2 µg/mL; in experiment [4], less than 2 µg/mL. In experiment [5], the MIC fell in the range of 16 to 64 µg/mL (≈ 43.9 to 176 µM). Also, the “MIC APAE006 + PMBN” value in experiment [3] is given as “A (MIC's of 2.0 μg/mL or less = A)”.

As for `CC(C)(O)[C@H](NC(=O)c1ccc(C#CC#CCC2CCCC2)cc1)C(=O)NO` [Example 91-20], the MIC is less than 2 µg/mL in the experiment on AECO001 (ATCC25922) (setting [6]); 2 to 16 µg/mL (≈ 5.23 to 41.8 µM) in the experiment on AECO001 (ATCC25922) (setting [7]); less than 2 µg/mL in experiment [1]; 2 to 16 µg/mL (≈ 5.23 to 41.8 µM) in the experiment with APAE001 (ATCC27853); 2 to 16 µg/mL (≈ 5.23 to 41.8 µM) in experiment [2]; 2 to 16 µg/mL (≈ 5.23 to 41.8 µM) in experiment [4]. Also, in experiment [5], the MIC was 16 to 64 µg/mL (≈ 41.8 to 167 µM). The “MIC APAE006 + PMBN” value in experiment [3] is recorded as “A (MIC's of 2.0 μg/mL or less = A)”.

With `C[C@@H](N)[C@H](NC(=O)c1ccc(C#CC2CC2c2ccccc2)cc1)C(=O)NO` (some centres unmarked) [Example 134-2], the MIC in the experiment with AECO001 (ATCC25922) (setting [6]) is 2 to 16 µg/mL (≈ 5.3 to 42.4 µM); in the experiment on AECO001 (ATCC25922) (setting [7]), 16 to 64 µg/mL (≈ 42.4 to 170 µM); in experiment [1], 2 to 16 µg/mL (≈ 5.3 to 42.4 µM); in the experiment on APAE001 (ATCC27853), 2 to 16 µg/mL (≈ 5.3 to 42.4 µM); in experiment [2], less than 2 µg/mL; in experiment [4], 2 to 16 µg/mL (≈ 5.3 to 42.4 µM). Also, the MIC in experiment [5] lay within 16 to 64 µg/mL (≈ 42.4 to 170 µM). For the same compound, in experiment [3], the “MIC APAE006 + PMBN” value is recorded as “A (MIC's of 2.0 μg/mL or less = A)”.

Consider `CCOCc1ccc(C#Cc2ccc(C(=O)N[C@H](C(=O)NO)C(C)(C)N)cc2)cc1` [Example 126-1, N—((S)-2-Amino-1-hydroxycarbamoyl-2-methyl-propyl)-4-(4-ethoxymethyl-phenylethynyl)-benzamide], for which the MIC (in the experiment on AECO001 (ATCC25922) (setting [6]); in the experiment with AECO001 (ATCC25922) (setting [7]); in experiment [1]; with APAE001 (ATCC27853); in experiment [2]; in experiment [4]) was less than 2 µg/mL throughout. Besides, the MIC in experiment [5] was in the range of 16 to 64 µg/mL (≈ 39.1 to 156 µM). Further, the “MIC APAE006 + PMBN” value in experiment [3] is on record as “A (MIC's of 2.0 μg/mL or less = A)”.

The values above are taken from US9617256B2 (priority 2007, dated 2017).
